According to PubChem BioAssay (NCI):
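Step 1: Grow cells in 96-well plates. Step 2: Expose to compound for 48 hours at 5 concentrations. Step 3: Interpolate endpoints linearly; if unreached, use highest concentration. Here, GI50 denotes the concentration required for 50% inhibition of growth. At the TGI there is no net growth.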

Tests used:
Experiment in all cases: inhibition of tumour cell growth, NCI panel, 48 h
[1] = system: SK-OV-3 ovarian
[2] = system: 786-0 renal
[3] = system: MALME-3M melanoma
[4] = system: HS 578T breast
[5] = system: SR leukemia
[6] = system: UACC-257 melanoma
[7] = system: A549 NSCLC
[8] = system: SNB-75 CNS
[9] = system: RXF 393 renal
[10] = system: OVCAR-8 ovarian

SMILES	GI50 [1] [µM]	TGI [1] [µM]	GI50 [2] [nM]	TGI [2] [µM]	GI50 [3] [nM]	TGI [3] [µM]	GI50 [4] [nM]	TGI [4] [µM]	GI50 [5] [nM]	TGI [5] [µM]	GI50 [6] [nM]	TGI [6] [µM]	GI50 [7] [µM]	TGI [7] [µM]	GI50 [8] [nM]	TGI [8] [µM]	GI50 [9] [nM]	TGI [9] [nM]	GI50 [10] [nM]	TGI [10] [µM]
COc1ccc(OC)c(/C=C(/C)[N+](=O)[O-])c1	6.41	19	1940	3.48	1810	3.61	3470	22.9	316	> 100	1690	3.22	4.54	17.5	4730	16	1720	3180	2130	4.91
O=[N+]([O-])c1c(Br)sc(Br)c1[N+](=O)[O-]	14	27	1730	3.25	–	–	2590	9.53	633	11.7	1520	3.04	13.7	41.5	1880	4.99	1470	2850	2390	7.08
COc1cc2c(cc1C)NC(=O)/C2=C\c1cccc(Oc2ccccc2)c1	22.3	40.9	13200	25.9	26100	44.6	39100	89.8	5680	31.4	21700	52.3	20.6	> 100	25000	49.6	–	–	25100	> 100
CC1(C)[C@@H](O[C@@H]2OC[C@@H](O[C@@H]3O[C@H](CO)[C@@H](O)[C@H](O)[C@H]3O[C@@H]3OC[C@@H](O)[C@H](O)[C@H]3O)[C@H](O)[C@H]2O[C@@H]2O[C@H](CO)[C@@H](O)[C@H](O)[C@H]2O)CC[C@]2(C)[C@H]3CC[C@]45OC[C@@]6(CC[C@](C)(C=O)C[C@H]64)[C@H](O)C[C@@]5(C)[C@]3(C)CC[C@@H]12	0.922	1.67	2840	5.77	879	1.74	995	2.4	185	1.92	920	1.83	0.943	1.95	746	1.53	892	2070	1070	2.57
Cc1cccc2c(=O)c3c(sc12)c(NCCNCCO)nc1ccccc13	–	–	1830	3.51	1650	3.18	1620	3.74	–	–	1860	3.79	1.47	3.19	1150	2.43	1430	2770	–	–
Oc1[nH]c2ccc(Cl)cc2c1/C=c1/ccc2c(c1)N=C(c1ccc(F)cc1)N=2	7.07	19.1	1800	3.9	1830	3.95	2310	7.51	2110	5.14	1890	4.35	1.74	3.61	1500	3.78	1890	3720	1960	4.26
